Experimental data from patent US11596626B2, “Compound for use against pathogenic Neisseria and Haemophilus species and Moraxella catarrhalis” (priority 2017, dated 2023).
“Also recorded” adds a separate entry of the source.

Assays:
Lactobacillus brevis = experiment: Growth curves in liquid culture (optical density) vs DMSO control; assay type: cell-based; conditions: 5-50 μM, FIG. 4
Description: Growth experiments with NQNO were conducted against Neisseria gonorrhoeae strain MS11 (Edwards, M., et al., Antigenic analysis of gonococcal pili using monoclonal antibodies, J Exp Med, 1984. 160(6): p. 1782-91) and a multidrug-resistant N. gonorrhoeae isolate from Slovenia (Unemo M, Golparian O, Potočnik M, Jeverica S. Treatment failure of pharyngeal gonorrhoea with internationally recommended first-line ceftriaxone verified in Slovenia, September 2011. Euro Surveill. 2012; 17(25):pii=20200), Neisseria macacae, and Lactobacillus brevis. The bacteria were inoculated in GC (Difco™ GC medium Ref. 228950, BD Becton Dickinson) and PPM broth (15 g/L Proteon Pepton, 1 g/L soluble starch, 5 g/L NaCl, 4 g/L KH2PO4, 1 g/L K2HPO4, pH 7.5) (Neisseriae) or TSB (BBL™ Trypticase Soy Broth Ref 211768, BD Becton Dickinson) (Lactobacillus) supplemented with solvent (DMSO) or the indicated concentrations of NQNO (5-50 04) and their growth at 37° C. was monitored over the course of 10 h by optical density readings in 30 minute intervals. […]
Before every experiment, bacteria were pre-cultured in 5 ml liquid medium for at least 2 hours then harvested and resuspended in PBS (phosphate buffered saline). Optical density (OD) was determined and a volume equal to an OD of 0.2 was inoculated into 5 ml of the respective medium. […] Optical density was determined every 0.5 h.

MS74 cells = experiment: Microscopic evaluation of treated cells; assay type: cell-based, human; conditions: up to 50 μM, 2 days, FIG. 14
Source text: FIG. 14: Microscopic evaluation of MS74 cells treated for two days with the indicated concentrations of NQNO compared to DMSO control.

N. gonorrhoeae = experiment: Immunofluorescence staining of upper vaginal tract sections of infected CEAtg mice; assay type: in vivo, Neisseria gonorrhoeae; conditions: 20 μl of 50 μM 2 h after infection, tissue 20 h later, FIGS. 8 and 9
Description: 6 to 8 week old, female CEA-transgenic mice were infected with N. gonorrhoeae. 2 h after infection, the animals were treated with 20 μl buffer containing solvent (DMSO) or 50 μM NQNO (Compound represented by the Formula (5)). 20 h later, the genital tract was excised and cryosections were stained for cell nuclei (Hoechst; blue), human CEA (red) and N. gonorrhoeae (gonococci, green) (FIG. 8).
Additional cryosections from the same samples were stained for cell nuclei (Hoechst; blue), human collagen (red) and N. gonorrhoeae (gonococci, green) (FIG. 9).
In particular, in the above experiments the genital tract of infected mice was excised and immediately fixed with 4% paraformaldehyde for at least 24 h. The fixed tissue was sequentially transferred to 10% sucrose, 0.05% cacodylic acid for 1 h at 4° C., to 20% sucrose for 1 h at 4° C., and then into 30% sucrose at 4° C. overnight. Organs were mounted in the embedding medium (Cryo-M-Bed; Bright Instrument, Huntingdon, UK) and frozen at −20° C. 10 μm thick sections were cut at −20° C. using a cryostat (Vacutom HM500, Microm, Germany). Sections were stained with a mouse monoclonal antibody against collagen type IV (clone M3F7; dilution 1:200) together with a polyclonal rabbit antibody against N. gonorrhoeae (dilution 1:100). […]

[1] = Stability in DMEM with 10% fetal calf serum by LC-MS; assay type: physicochemical; conditions: 100 μM in DMEM with 10% fetal calf serum, 24° C. and 37° C.
Description: Stability of 100 μM NQNO in Dulbecco's modified Eagle's medium (DMEM) medium supplemented with 10% fetal calf serum at 24° C. and 37° C. was evaluated over a period of 4 days. Samples were taken at the beginning (day 0) and every second day. Samples were analyzed by LC-MS and the integrals of the detected NQNO (by using extracted ion chromatograms) compared to the integral of the control (100 μM NQNO in H2O) which was set to 100%.

In the case of `CCCCCCCCCc1cc(=O)c2ccccc2n1O` [NQNO, 1-Hydroxy-2-nonylquinolin-4(1H)-one], the Effect on growth (Lactobacillus brevis) was “did not compromise the growth”, the “Morphology and overall phenotype of cells” value (MS74 cells) was “did not change” and the “Gonococci on the mucosal surface (fluorescence microscopy)” value (N. gonorrhoeae) was “hardly any gonococci could be detected; also recorded: no gonococci could be detected”. For the same compound, the “Time stable in serum-containing cell culture medium” value [1] was “at least 4 days”.
